In patent US12053458B2, “Treating sickle cell disease with a pyruvate kinase R activating compound” (Novo Nordisk Health Care AG, priority 2018, dated 2024):
Several values for one entry are separate records, joined by “and”; a condition that tells them apart may be missing. Equal values may be shown once.

Experiments:
[1] = target: T1, PKR-R510Q (Homo sapiens, UniProt P30613, R510Q); test: Luminescence Assay (Kinase Glo Plus), PKR(R510Q); assay type: biochemical; conditions: 100 μM PEP, 100 μM ADP, read-out: AC50 (PKRR510Q)
T1 sequence (P30613 whole entry R510Q): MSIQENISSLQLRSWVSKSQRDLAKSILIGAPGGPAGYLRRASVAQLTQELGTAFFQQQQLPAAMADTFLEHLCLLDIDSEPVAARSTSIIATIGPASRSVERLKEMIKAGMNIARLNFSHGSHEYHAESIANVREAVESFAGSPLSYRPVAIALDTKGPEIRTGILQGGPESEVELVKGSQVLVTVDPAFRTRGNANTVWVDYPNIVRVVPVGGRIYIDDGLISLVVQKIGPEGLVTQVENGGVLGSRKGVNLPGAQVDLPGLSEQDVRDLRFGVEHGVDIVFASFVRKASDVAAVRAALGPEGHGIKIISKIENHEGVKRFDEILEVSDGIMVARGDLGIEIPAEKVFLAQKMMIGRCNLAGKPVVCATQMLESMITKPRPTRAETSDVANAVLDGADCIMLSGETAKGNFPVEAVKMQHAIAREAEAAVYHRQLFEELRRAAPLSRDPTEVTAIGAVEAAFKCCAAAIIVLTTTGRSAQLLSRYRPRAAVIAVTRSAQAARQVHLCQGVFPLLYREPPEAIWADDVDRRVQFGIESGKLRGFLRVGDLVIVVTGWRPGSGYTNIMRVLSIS
Procedure: For each tested compound, the ability to activate PKR was determined using the following Luminescence Assay. The effect of phosphorylation of adenosine-5′-diphosphate (ADP) by PKR is determined by the Kinase Glo Plus Assay (Promega) in the presence or absence of FBP (D-fructose-1,6-diphosphate; BOC Sciences, CAS: 81028-91-3) as follows. Unless otherwise indicated, all reagents are purchased from Sigma-Aldrich. All reagents are prepared in buffer containing 50 mM Tris-HCl, 100 mM KCl, 5 mM MgCl2, and 0.01% Triton X100, 0.03% BSA, and 1 mM DTT. Enzyme and PEP (phosphoenolpyruvate) are added at 2× to all wells of an assay-ready plate containing serial dilutions of test compounds or DMSO vehicle. Final enzyme concentrations for PKR(wt), PKR(R510Q), and PKR(G332S) are 0.8 nM, 0.8 nM, and 10 nM respectively. Final PEP concentration is 100 μM. The Enzyme/PEP mixture is incubated with compounds for 30 minutes at RT before the assay is initiated with the addition of 2×ADP and KinaseGloPlus. Final concentration of ADP is 100 μM. […] For assays containing FBP, that reagent is added at 30 μM upon reaction initiation. Reactions are allowed to progress for 45 minutes at RT until luminescence is recorded by the BMG PHERAstar FS Multilabel Reader. The compound is tested in triplicate at concentrations ranging from 42.5 μM to 2.2 nM in 0.83% DMSO. […]

[2] = target: T2, wt-PKR (Homo sapiens, UniProt P30613); test: Enzyme assay: effect on Vmax and PEP Km, wt-PKR; assay type: biochemical; conditions: 2 μM Compound 1; for Vmax: WT-PKR, normalized to 1.00 relative to other values in the row
T2 sequence (P30613 whole entry): as the sequence (P30613 whole entry R510Q) above, with Q510R counted along it
Procedure: (§1) Tests were conducted in the presence and absence of fructose-1,6-bisphosphate (FBP), a known allosteric activator of PKR.

[3] = target: T1, PKR-R510Q; test: Enzyme assay: effect on Vmax and PEP Km, PKR-R510Q; assay type: biochemical; conditions: 2 μM Compound 1; for Vmax: PKR R510Q, normalized to 1.00 relative to other values in the row
Procedure: as §1

[4] = target: T2, wt-PKR; test: Enzyme assay: activation (rate of ATP formation) by different concentrations, wt-PKR; assay type: biochemical; conditions: PEP at or below Km
[5] = target: T1, PKR-R510Q; test: Enzyme assay: activation (rate of ATP formation) by different concentrations, PKR-R510Q; assay type: biochemical; conditions: PEP at or below Km
[6] = target: T3, PKR (Mus musculus, UniProt P53657); test: PKR activation in mouse red blood cells; assay type: cell-based; conditions: mouse RBCs
T3 construct: Mouse RBCs were isolated fresh from whole blood using a Ficoll gradient; endogenous in cells; host or cells: freshly isolated mouse red blood cells
T3 sequence (P53657 whole entry): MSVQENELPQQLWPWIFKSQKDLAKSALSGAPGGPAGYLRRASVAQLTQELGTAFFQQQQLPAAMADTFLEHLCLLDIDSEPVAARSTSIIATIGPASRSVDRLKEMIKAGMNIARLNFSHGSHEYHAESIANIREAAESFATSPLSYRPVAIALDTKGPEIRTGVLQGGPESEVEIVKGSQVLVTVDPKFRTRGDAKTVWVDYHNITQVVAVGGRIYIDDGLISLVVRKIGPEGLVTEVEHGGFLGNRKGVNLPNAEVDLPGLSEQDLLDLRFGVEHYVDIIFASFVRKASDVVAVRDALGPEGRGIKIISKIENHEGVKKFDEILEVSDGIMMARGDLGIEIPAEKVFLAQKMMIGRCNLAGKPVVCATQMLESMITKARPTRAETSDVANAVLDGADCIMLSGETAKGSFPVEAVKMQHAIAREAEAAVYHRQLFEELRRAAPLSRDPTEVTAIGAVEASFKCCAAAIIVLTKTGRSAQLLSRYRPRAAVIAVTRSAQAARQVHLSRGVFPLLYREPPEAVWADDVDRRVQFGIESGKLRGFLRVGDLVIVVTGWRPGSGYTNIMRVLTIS
Procedure: (§2) The activation of wt-PKR by Compound 1 in mature human erythrocytes ex vivo was evaluated in purified RBCs purchased from Research Blood Components. Cells treated with Compound 1 for 3 hr in glucose-containing media were washed, lysed, and assayed using a Biovision Pyruvate Kinase Assay (K709-100). The assay was repeated multiple times to account for donor-to-donor variability and the relatively narrow dynamic range.
Mouse RBCs were isolated fresh from whole blood using a Ficoll gradient and assayed with methods similar to those used in the human RBCs assays.

[7] = test system: Balb/c mice; test: PK/PD studies in wild type Balb/c mice, oral gavage QD×7; assay type: in vivo
Procedure: Two pharmacokinetic (PK)/phamacodynamic (PD) studies were conducted in Balb/c mice that were administered Compound 1 once daily by oral gavage (formulated in 10% Cremophor EL/10% PG/80% DI water) for 7 days (QD×7) at doses of 0 (vehicle), 3.75, 7.5, 15, 30, 60 mg/kg (Study 1); 0 (vehicle), 7.5, 15, 30, 60, 120, or 240 mg/kg (Study 2). On the 7th day, whole blood was collected 24 hours after dosing and snap frozen. Samples were later thawed and analyzed by LC/MS for 2,3-DPG and ATP levels.

[8] = test system: Berkeley SS mouse; test: Berkeley SS mouse model of SCD, 7 days in chow; assay type: in vivo; conditions: 1000 ppm in chow
Source text: Targeted gene deletions and a human transgene in the Berkeley SS mouse model result in mice that express human HgbS almost exclusively (Pászty C. Transgenic and gene knock-out mouse models of sickle cell anemia and the thalassemias. Curr Opin Hematol. 1997 March; 4(2):88-93) and mimic the genetic, hematologic, and histopathologic features of SCD in humans. These include irreversibly sickled RBCs, anemia, and multi-organ pathology.
The effects of Compound 1 on Hgb affinity for oxygen, percentage of sickled cells, and/or Hgb were evaluated in the Berkley SS mouse. Two studies were conducted where mice received 0 or 1000 ppm Compound 1 ad libitum in mouse chow for 7 days. Blood was drawn on Day 7 and analyzed under hypoxic conditions. Red cell parameters were measured by ADVIA.

[9] = test system: healthy volunteers; test: Phase 1 single ascending dose (SAD) cohorts; assay type: in vivo, human
Source text: (§3) This is a first-in-human (FIH), Phase 1 study of Compound 1 that will characterize the safety, PK, and PD of Compound 1 after a single dose and after repeated dosing first in healthy adult volunteers and then in adolescents or adults with sickle cell disease. Initially, a dose range of Compound 1 in single ascending dose (SAD) escalation cohorts will be explored in healthy subjects. Enrollment of healthy subjects into 2-week multiple ascending dose (MAD) escalation cohorts will be initiated once the safety and PK from at least two SAD cohorts is available to inform the doses for the 2-week MAD portion of the study. The MAD cohorts will then run in parallel to the single dose cohorts. A single dose cohort is planned to understand food effects (FE) on the PK of Compound 1. […] Multiple dose studies in SCD subjects will then be initiated upon completion of MAD studies in healthy volunteers. Compound 1 will be administered in 25 mg and 100 mg tablets delivered orally.
(§4) Four healthy SAD cohorts were evaluated at doses of 200, 400, 700, and 1000 mg, and four healthy MAD cohorts received 200 to 600 mg total daily doses for 14 days at QD or BID dosing (100 mg BID, 200 mg BID, 300 mg BID, and 400 mg QD). In the food effect (FE) cohort, 10 healthy subjects received 200 mg of Compound 1 QD with and without food.
In the SAD cohorts, the subjects' blood 2,3-DPG levels were measured periodically after dosing by a qualified LC-MS/MS method for the quantitation of 2,3-DPG in blood. Decreased 2,3-DPG blood levels were observed 6 hours following a single dose of Compound 1 at all dose levels (earlier timepoints were not collected). Maximum decreases in 2,3-DPG levels generally occurred ˜24 hours after the first dose with the reduction sustained ˜48-72 hr postdose. Table 14 reports the median percentage change in 2,3-DPG blood levels, relative to baseline, measured over time in healthy volunteers after a single dose of Compound 1 (200 mg, 400 mg, 700 mg, or 1000 mg) or placebo. Accordingly, the median reduction in the concentration of 2,3-DPG, relative to baseline, was at least about 30% at all dose levels tested 24 hours after administration of the single dose.
In the SAD cohorts, the subjects' P50 (PO2 at 50% hemoglobin saturation) were determined 24-hours post-dose. P50 measured 24 hours after a single dose of Compound 1 were reduced at all dose levels tested (median reduction ranged from ˜3-5 mmHg). Table 15 reports the mean absolute change in P50, relative to baseline, measured 24 hours after a single dose of Compound 1 (200 mg, 400 mg, 700 mg, or 1000 mg) or placebo in healthy volunteers.
(§5) The following procedures are employed for the analysis of ATP and 2,3-DPG in human whole blood K2EDTA using a protein precipitation extraction procedure and analysis by LC-MS/MS.

[10] = test system: healthy volunteers; test: Phase 1 multiple ascending dose (MAD) cohorts, 14 days; assay type: in vivo, human
Source text: as §3, §4
In the MAD cohorts, the subjects' blood 2,3-DPG levels were measured periodically after dosing by a qualified LC-MS/MS method for the quantitation of 2,3-DPG in blood. The maximum decrease in 2,3-DPG on Day 14 was 55% from baseline (median). […] Table 16 reports the median percentage change in 2,3-DPG blood levels, relative to baseline, measured over time after the first dose on days 1 and 14 in healthy volunteers who received daily doses of Compound 1 (100 mg BID, 200 mg BID, or 300 mg BID) or placebo for 14 days. Accordingly, the median reduction in the concentration of 2,3-DPG, relative to baseline, was at least about 25% at all dose levels tested 24 hours after administration of the first dose on day 1 and at least about 40% at all dose levels tested 24 hours after administration of the first dose on day 14.
In the MAD cohorts, the subjects' P50 (PO2 at 50% hemoglobin saturation) were determined on day 14. P50 values measured after 14 days of twice daily dosing were reduced at all dose levels tested (median reduction ranged from −3-5 mmHg). Table 17 reports the mean absolute change in P50, relative to baseline, measured on day 14 in healthy volunteers who received daily doses of Compound 1 (100 mg BID, 200 mg BID, or 300 mg BID) or placebo for 14 days.
In the MAD cohorts, the subjects' blood ATP levels were measured on day 14 by a qualified LC-MS/MS method for the quantitation of ATP in blood. […] Table 18 reports the median percentage change in blood ATP levels, relative to baseline, measured over time after the first dose on day 14 in healthy volunteers who received daily doses of Compound 1 (100 mg BID, or 200 mg BID) or placebo for 14 days.
as §5

[11] = target: T2, wt-PKR; test: PKR activation in mature human erythrocytes ex vivo (Biovision Pyruvate Kinase Assay); assay type: cell-based; design: evaluated in purified RBCs purchased from Research Blood Components; host or cells: purified mature human erythrocytes from donors; conditions: human RBCs, 3 hr treatment
Procedure: as §2

[12] = SAD, all doses and timepoints, N = 24
[13] = MAD, all doses and timepoints, N = 36

O=C([C@H](CO)c1ccccc1)N1CC2=C(C1)CN(S(=O)(=O)c1cnc3c(c1)OCCO3)C2 (single isomer, unassigned) [Compound 1]
AC50 [1]: ≤ 0.1 µM | Vmax ([2]; 30 μM FBP): 1.16 | Vmax ([2]; No FBP): 1.14 | Effect on Vmax ([2]; wt-PKR): no effect to a modest increase | Reduction of PEP Km ([2]; wt-PKR, presence or absence of FBP): ~2 fold | Vmax ([3]; 30 μM FBP): 1.29 | Vmax ([3]; No FBP): 1.56 | Effect on Vmax ([3]; PKR-R510Q): no effect to a modest increase | Reduction of PEP Km ([3]; PKR-R510Q, presence or absence of FBP): ~2 fold | Maximum-fold Activation [4]: <2.0 fold | Maximum-fold Activation [5]: <3.0 fold | Max − Min (%), Mean ([6]; mean of replicates): <100% | Max − Min (%) ([6]; single replicates): <50% and <100% | Exposure versus dose ([7]; mice, oral): increased in a dose-proportional manner | Adverse clinical signs ([7]; oral QD×7, both studies): No adverse clinical signs were observed | Body weight change ([7]; oral QD×7, both studies): no differences in body weight change compared with the vehicle group | Tolerability ([7]; oral QD×7, up to 240 mg/kg, both studies): well tolerated up to the highest dose tested | Level of reticulocytes [8]: reduced | Oxygen affinity to Hgb under hypoxic conditions [8]: increased | Percentage of RBCs that sickled at low oxygen pressures [8]: decreased | Time to sickle [8]: increased | P50 ([8]; hypoxic conditions): decreased | Time of maximum decrease in 2,3-DPG levels after the first dose ([9]; SAD cohorts): ~24 h | Serious adverse events / AEs leading to withdrawal ([9]; SAD cohorts 200-1000 mg): No serious adverse events (SAEs) or AEs leading to withdrawal were reported | 2,3-DPG, Mean Maximum Percent Change from Baseline [9, 12]: −46.8% | ATP, Mean Maximum Percent Change from Baseline [9, 12]: 24.4% | Median reduction in the concentration of 2,3-DPG relative to baseline ([9]; all dose levels, 24 hours after single dose): at least 30% | Single dose exposure versus dose ([9]; doses ≥700 mg): increased in greater than dose-proportional manner | Time of pharmacodynamic maximum (minimum of 2,3-DPG concentration) ([9]; single dose 400 mg): ~24 h | Time of pharmacokinetic maximum (maximum of the PK curve) ([9]; single dose 400 mg): 1 to 2 h | PK linearity, multiple doses ([10]; 100-300 mg BID, 400 mg QD): linear PK was observed across all dose levels | Serious adverse events / AEs leading to withdrawal ([10]; MAD cohorts 200-600 mg total daily, 14 days): No serious adverse events (SAEs) or AEs leading to withdrawal were reported | 2,3-DPG, Mean Maximum Percent Change from Baseline [10, 13]: −56.3% | ATP, Mean Maximum Percent Change from Baseline [10, 13]: 68.5% | Median reduction of P50 ([10]; after 14 days of twice daily dosing, all dose levels): −3-5 mmHg | Blood ATP levels relative to baseline ([10]; day 14, remained so 60 hours after the last dose): elevated | Exposure over time, multiple doses ([10]; up to day 14): remained steady up to day 14, without cumulative effect | EC50 ([11]; mean of replicates): < 125 nM | Max − Min (%) ([11]; single replicates): <125% and <150% and <100% and <50%
